Experimental data published in patent publication US20240043427A1 (Gilead Sciences, Inc., priority 2020, published 2024).

How the values were obtained:
CD73 [1] = biological target: T1, CD73 (Homo sapiens (Human), UniProt P21589); assay type: biochemical; details: 1 mM NaH2PO4 in enzyme buffer, CD73 0.3 nM, AMP 15 uM
CD73 [2] = biological target: T1, CD73; assay: MDA-MB-231 Cell Based CD73 Activity Assay (DMEM); details: MDA-MB-231-GFP cells, DMEM medium with 10% human plasma, 200 uM AMP
Procedure: MDA-MB-231 Cell Based CD73 Activity Assay (DMEM) MDA-MB-231-GFP cells were seeded in 384-well plates (Greiner 781946) at a density of 3000 cells per well in 50 μL of DMEM medium with 10% HP (human plasma). Cells were plated into assay plate with compounds pre-spotted, for an overnight compound treatment. 50 uL of 400 uM AMP (final concentration will be 200 uM) was added using Bio-tek dispenser. Plates were incubated for 100 mins. […] The samples were analyzed using Rapid fire.

T1 sequence (P21589 27-574): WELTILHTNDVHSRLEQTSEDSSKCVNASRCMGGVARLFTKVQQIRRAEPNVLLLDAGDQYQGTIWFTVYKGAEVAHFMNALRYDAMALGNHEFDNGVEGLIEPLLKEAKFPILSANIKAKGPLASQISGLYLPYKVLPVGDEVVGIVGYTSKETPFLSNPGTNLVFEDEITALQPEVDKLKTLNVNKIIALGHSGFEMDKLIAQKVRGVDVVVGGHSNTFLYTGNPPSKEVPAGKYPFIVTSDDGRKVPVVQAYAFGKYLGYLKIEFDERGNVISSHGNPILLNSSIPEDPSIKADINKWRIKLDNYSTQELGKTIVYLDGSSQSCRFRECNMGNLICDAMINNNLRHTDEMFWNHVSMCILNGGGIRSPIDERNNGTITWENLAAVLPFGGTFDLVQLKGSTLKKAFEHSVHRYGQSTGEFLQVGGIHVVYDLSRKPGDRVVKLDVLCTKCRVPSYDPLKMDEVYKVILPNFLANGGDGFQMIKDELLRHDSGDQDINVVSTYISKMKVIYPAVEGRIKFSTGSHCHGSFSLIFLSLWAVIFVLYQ

In the case of `COC(=O)c1cccc(C2CN(c3cc(-c4c[nH]c(=O)[nH]c4=O)nn4ccnc34)C2)c1` [Example 263, Methyl 3-(1-(6-(2,4-dioxo-1,2,3,4-tetrahydropyrimidin-5-yl)imidazo[1,2-b]pyridazin-8-yl)azetidin-3-yl)benzoate], the IC50 (CD73 [1]) is reported as 10.7 nM and the EC50 (CD73 [2]) is reported as 31.4 nM.

In the case of `CC(C)(C)COc1cc(-c2c[nH]c(=O)[nH]c2=O)nn2ccnc12` [Example 679, 5-(8-(neopentyloxy)imidazo[1,2-b]pyridazin-6-yl)pyrimidine-2,4(1H,3H)-dione], the EC50 (CD73 [2]) is reported as 124 nM.

`O=c1[nH]cc(-c2cc(NCCc3ccc(Cl)cc3)c3nccn3n2)c(=O)[nH]1` [Example 497, 5-(8-((4-chlorophenethyl)amino)imidazo[1,2-b]pyridazin-6-yl)pyrimidine-2,4(1H,3H)-dione] gave an IC50 (CD73 [1]) of 64.5 nM and an EC50 (CD73 [2]) of 569 nM.

For `O=C(Nc1c(F)cc(F)cc1F)O[C@H]1CN(c2cc(-c3c[nH]c(=O)[nH]c3=O)nn3ccnc23)CC1(F)F` [Example 239, (S)-1-(6-(2,4-dioxo-1,2,3,4-tetrahydropyrimidin-5-yl)imidazo[1,2-b]pyridazin-8-yl)-4,4-difluoropyrrolidin-3-yl (2,4,6-trifluorophenyl)carbamate], the IC50 (CD73 [1]) was 0.86 nM and the EC50 (CD73 [2]) was 1.17 nM.

`N#CC12CC1CN(c1cc(-c3c[nH]c(=O)[nH]c3=O)nn3ccnc13)C2` (stereo not shown) [Example 354, 3-(6-(2,4-dioxo-1,2,3,4-tetrahydropyrimidin-5-yl)imidazo[1,2-b]pyridazin-8-yl)-3-azabicyclo[3.1.0]hexane-1-carbonitrile] showed an IC50 (CD73 [1]) of 90.8 nM and an EC50 (CD73 [2]) of 401 nM.

`O=C(NC1CN(c2cc(-c3c[nH]c(=O)[nH]c3=O)nn3ccnc23)CC1(F)F)c1ccc(C(F)(F)F)cc1` (stereo not shown) [Example 210, N-[1-[6-(2,4-dioxo-1H-pyrimidin-5-yl)imidazo[1,2-b]pyridazin-8-yl]-4,4-difluoro-pyrrolidin-3-yl]-4-(trifluoromethyl)benzamide] gave an IC50 (CD73 [1]) of 4.59 nM and an EC50 (CD73 [2]) of 24.4 nM.

Compound `Cc1cc([C@H]2C[C@@H]2c2cc(-c3c[nH]c(=O)[nH]c3=O)nn3ccnc23)cc2c1cnn2CC(F)(F)F` [Example 714, 5-(8-((1S,2S)-2-(4-methyl-1-(2,2,2-trifluoroethyl)-1H-indazol-6-yl)cyclopropyl)imidazo[1,2-b]pyridazin-6-yl)pyrimidine-2,4(1H,3H)-dione] has an IC50 (CD73 [1]) of 0.7 nM and an EC50 (CD73 [2]) of 0.19 nM.

`O=c1[nH]cc(-c2cc(N3CCC4(C3)CC(F)(F)C4)c3nccn3n2)c(=O)[nH]1` [Example 571, 5-(8-(2,2-difluoro-6-azaspiro[3.4]octan-6-yl)imidazo[1,2-b]pyridazin-6-yl)pyrimidine-2,4(1H,3H)-dione] was tested, and the IC50 (CD73 [1]) was 30.4 nM and the EC50 (CD73 [2]) was 62.3 nM.

In the case of `O=c1[nH]cc(-c2cc(N3CC[C@@H](OC(F)(F)F)C3)c3nccn3n2)c(=O)[nH]1` [Example 187, 5-[8-[(3R)-3-(trifluoromethoxy)pyrrolidin-1-yl]imidazo[1,2-b]pyridazin-6-yl]-1H-pyrimidine-2,4-dione], the IC50 (CD73 [1]) is reported as 2.76 nM and the EC50 (CD73 [2]) is reported as 12.6 nM.

In the case of `COC(=O)N1CC2(C1)CN(c1cc(-c3c[nH]c(=O)[nH]c3=O)nn3ccnc13)CC2(F)F` [Example 504, Methyl 6-(6-(2,4-dioxo-1,2,3,4-tetrahydropyrimidin-5-yl)imidazo[1,2-b]pyridazin-8-yl)-8,8-difluoro-2,6-diazaspiro[3.4]octane-2-carboxylate], the IC50 (CD73 [1]) is reported as 6.78 nM and the EC50 (CD73 [2]) is reported as 5.62 nM.

`Cc1nc2ccc([C@H]3C[C@@H]3c3cc(-c4c[nH]c(=O)[nH]c4=O)nn4c(F)cnc34)cc2s1` (racemic) [Example 580, 5-(3-fluoro-8-((1S,2S)-2-(2-methylbenzo[d]thiazol-6-yl)cyclopropyl)imidazo[1,2-b]pyridazin-6-yl)pyrimidine-2,4(1H,3H)-dione] gave an IC50 (CD73 [1]) of 1.63 nM and an EC50 (CD73 [2]) of 5.79 nM.

For `O=c1[nH]cc(-c2cc(N3C[C@@H]4[C@H](C3)[C@H]4C(F)(F)F)c3nccn3n2)c(=O)[nH]1` [Example 352, 5-(8-((1R,5S,6r)-6-(trifluoromethyl)-3-azabicyclo[3.1.0]hexan-3-yl)imidazo[1,2-b]pyridazin-6-yl)pyrimidine-2,4(1H,3H)-dione], the IC50 (CD73 [1]) was > 250 nM and the EC50 (CD73 [2]) was 1000 nM.

For `O=c1[nH]cc(-c2cc(N3CCCCCC3)c3nccn3n2)c(=O)[nH]1` [Example 483, 5-(8-(azepan-1-yl)imidazo[1,2-b]pyridazin-6-yl)pyrimidine-2,4(1H,3H)-dione], the IC50 (CD73 [1]) was > 250 nM and the EC50 (CD73 [2]) was 566 nM.

`O=C1N(CC(F)(F)F)c2cc([C@H]3C[C@@H]3c3cc(-c4c[nH]c(=O)[nH]c4=O)nn4ccnc34)ccc2C12CCCC2` [Example 387, 5-(8-((1S,2S)-2-(2′-oxo-1′-(2,2,2-trifluoroethyl)spiro[cyclopentane-1,3′-indolin]-6′-yl)cyclopropyl)imidazo[1,2-b]pyridazin-6-yl)pyrimidine-2,4(1H,3H)-dione] showed an IC50 (CD73 [1]) of 1.27 nM and an EC50 (CD73 [2]) of 0.36 nM.

With `CC(C)C(C)Oc1cc(-c2c[nH]c(=O)[nH]c2=O)nn2ccnc12` (stereo not shown) [Example 680, 5-(8-((3-methylbutan-2-yl)oxy)imidazo[1,2-b]pyridazin-6-yl)pyrimidine-2,4(1H,3H)-dione] the IC50 (CD73 [1]) was 225 nM and the EC50 (CD73 [2]) was 454 nM.

Compound `CC(F)(F)COc1cc(-c2c[nH]c(=O)[nH]c2=O)nn2ccnc12` [Example 677, 5-(8-(2,2-difluoropropoxy)imidazo[1,2-b]pyridazin-6-yl)pyrimidine-2,4(1H,3H)-dione] has an IC50 (CD73 [1]) of 12.2 nM and an EC50 (CD73 [2]) of 22.2 nM.

`O=c1[nH]cc(-c2cc(N3CCC(Cn4ccnn4)C3)c3nccn3n2)c(=O)[nH]1` (stereo not shown) [Example 592, 5-(8-(3-((1H-1,2,3-triazol-1-yl)methyl)pyrrolidin-1-yl)imidazo[1,2-b]pyridazin-6-yl)pyrimidine-2,4(1H,3H)-dione] was tested, and the IC50 (CD73 [1]) was 96.2 nM and the EC50 (CD73 [2]) was 774 nM.

`O=c1[nH]cc(-c2cc(N3C[C@H]4CCC[C@H]4C3)c3nccn3n2)c(=O)[nH]1` [Example 223, 5-(8-((3aR,6aS)-hexahydrocyclopenta[c]pyrrol-2(1H)-yl)imidazo[1,2-b]pyridazin-6-yl)pyrimidine-2,4(1H,3H)-dione] showed an IC50 (CD73 [1]) of 31.4 nM and an EC50 (CD73 [2]) of 66.4 nM.

`O=c1[nH]cc(-c2cc(N3CCC4(C3)CC4(F)F)c3nccn3n2)c(=O)[nH]1` (stereo not shown) [Example 192] showed an EC50 (CD73 [2]) of 20.9 nM.

Work on `O=c1[nH]cc(-c2cc([C@H]3C[C@@H]3c3ccc4cnn(CC(F)(F)F)c4c3F)c3ncc(F)n3n2)c(=O)[nH]1` [Example 630, 5-(3-fluoro-8-((1S,2S)-2-(7-fluoro-1-(2,2,2-trifluoroethyl)-1H-indazol-6-yl)cyclopropyl)imidazo[1,2-b]pyridazin-6-yl)pyrimidine-2,4(1H,3H)-dione] yielded an EC50 (CD73 [2]) of 0.08 nM.

Compound `CC(C)NC(=O)O[C@H]1CN(c2cc(-c3c[nH]c(=O)[nH]c3=O)nc3ccnn23)CC1(F)F` [Example 713, (S)-1-(5-(2,4-dioxo-1,2,3,4-tetrahydropyrimidin-5-yl)pyrazolo[1,5-a]pyrimidin-7-yl)-4,4-difluoropyrrolidin-3-yl isopropylcarbamate] has an EC50 (CD73 [2]) of 0.39 nM.

`O=c1[nH]cc(-c2cc(N3CC4CC(F)(C4)C3)c3nccn3n2)c(=O)[nH]1` [Example 579, 5-(8-(1-fluoro-3-azabicyclo[3.1.1]heptan-3-yl)imidazo[1,2-b]pyridazin-6-yl)pyrimidine-2,4(1H,3H)-dione] was tested, and the EC50 (CD73 [2]) was 111 nM.

`O=c1[nH]cc(-c2cc(N3CC(Oc4ccc(C(F)(F)F)cn4)C(F)(F)C3)c3ncnn3n2)c(=O)[nH]1` (racemic) [Example 432, 5-(8-(3,3-difluoro-4-((5-(trifluoromethyl)pyridin-2-yl)oxy)pyrrolidin-1-yl)-[1,2,4]triazolo[1,5-b]pyridazin-6-yl)pyrimidine-2,4(1H,3H)-dione] was tested, and the IC50 (CD73 [1]) was 0.15 nM.

`CNC(=O)c1ccc([C@H]2C[C@@H]2c2cc(-c3c[nH]c(=O)[nH]c3=O)nn3ccnc23)cc1` (racemic) [Example 285, 4-((1S,2S)-2-(6-(2,4-dioxo-1,2,3,4-tetrahydropyrimidin-5-yl)imidazo[1,2-b]pyridazin-8-yl)cyclopropyl)-N-methylbenzamide] showed an IC50 (CD73 [1]) of 1.42 nM.

With `CNC(=O)c1ccc([C@H]2C[C@@H]2c2cc(-c3c[nH]c(=O)[nH]c3=O)nn3c(F)cnc23)cc1` (racemic) [Example 312, 4-((1S,2S)-2-(6-(2,4-dioxo-1,2,3,4-tetrahydropyrimidin-5-yl)-3-fluoroimidazo[1,2-b]pyridazin-8-yl)cyclopropyl)-N-methylbenzamide] the IC50 (CD73 [1]) was 1.29 nM.

With `COC(=O)c1cccc([C@H]2C[C@@H]2c2cc(-c3c[nH]c(=O)[nH]c3=O)nn3ccnc23)c1` (racemic) [Example 282, methyl 3-((1S,2S)-2-(6-(2,4-dioxo-1,2,3,4-tetrahydropyrimidin-5-yl)imidazo[1,2-b]pyridazin-8-yl)cyclopropyl)benzoate] the IC50 (CD73 [1]) was 1.81 nM.

`O=c1[nH]cc(-c2cc([C@H]3C[C@@H]3c3ccc(OC(F)(F)F)cc3)c3nccn3n2)c(=O)[nH]1` (racemic) [Example 359, 5-(8-((1S,2S)-2-(4-(trifluoromethoxy)phenyl)cyclopropyl)imidazo[1,2-b]pyridazin-6-yl)pyrimidine-2,4(1H,3H)-dione] showed an IC50 (CD73 [1]) of 1.74 nM.

With `O=c1[nH]cc(-c2cc([C@H]3C[C@@H]3c3ccc(OC(F)(F)F)cn3)c3ncc(F)n3n2)c(=O)[nH]1` (racemic) [Example 374, 5-(3-fluoro-8-((1S,2S)-2-(5-(trifluoromethoxy)pyridin-2-yl)cyclopropyl)imidazo[1,2-b]pyridazin-6-yl)pyrimidine-2,4(1H,3H)-dione] the IC50 (CD73 [1]) was 4.1 nM.

Compound `O=c1[nH]cc(-c2cc([C@H]3C[C@@H]3c3c(F)ccc(F)c3F)c3nccn3n2)c(=O)[nH]1` (racemic) [Example 468, 5-(8-((1S,2S)-2-(2,3,6-trifluorophenyl)cyclopropyl)imidazo[1,2-b]pyridazin-6-yl)pyrimidine-2,4(1H,3H)-dione] has an IC50 (CD73 [1]) of 1.67 nM.
